Source: patent US6403794B2, “Substituted 2-amino-4-alkylamino-1,3,5-triazines as herbicides” (Bayer Aktiengesellschaft, priority 1996, dated 2002)

Columns and labels:
Amaranthus [1] = assay: Post-emergence test; format: in vivo; conditions: Amaranthus, 504 h, greenhouse, 1000 g of ai./ha, after three weeks, read-out: degree of damage to the plants (% damage), Amaranthus
Procedure: (§1) Solvent: 5 parts by weight of acetone
(§2) Emulsifier: 1 part by weight of alkylaryl polyglycol ether
(§3) To produce a suitable preparation of active compound, 1 part by weight of active compound is mixed with the stated amount of solvent, the stated amount of emulsifier is added and the concentrate is diluted with water to the desired concentration.
(§4) Test plants which have a height of 5-15 cm are sprayed with the preparation of active compound such that the particular amounts of active compounds desired are applied per unit area. The concentration of the spray liquor is chosen so that the particular amounts of active compound desired are applied in 1000 l of water/ha.
(§5) After three weeks, the degree of damage to the plants is scored visually in % damage, in comparison to the untreated control.
(§6) 0%=no effect (like untreated control)

Xanthium [2] = assay: Post-emergence test; format: in vivo; conditions: greenhouse, 1000 g of ai./ha, after three weeks
Procedure: as §1, §2, §3, §4, §5, §6

weeds [3] = assay: Post-emergence test; format: in vivo
Procedure: as §1, §2, §3, §4, §5, §6

Abutilon [4] = assay: Post-emergence test; format: in vivo; conditions: greenhouse, after three weeks
Procedure: as §1, §2, §3, §4, §5, §6

Galium [5] = assay: Post-emergence test; format: in vivo; conditions: greenhouse, 1000 g of ai./ha, after three weeks
Procedure: as §1, §2, §3, §4, §5, §6

Alopecurus [6] = assay: Post-emergence test; format: in vivo; conditions: greenhouse, 1000 g of ai./ha, after three weeks
Procedure: as §1, §2, §3, §4, §5, §6

Setaria [7] = assay: Post-emergence test; format: in vivo; conditions: Setaria, 504 h, greenhouse, 1000 g of ai./ha, after three weeks, read-out: degree of damage to the plants (% damage), Setaria
Procedure: as §1, §2, §3, §4, §5, §6

Amaranthus [8] = assay: Pre-emergence test; format: in vivo; conditions: Amaranthus, 504 h, greenhouse, 1000 g of ai./ha, after three weeks, read-out: degree of damage to the plants (% damage), Amaranthus
Procedure: as §1, §2, §3
(§7) Seeds of the test plants are sown in normal soil. After about 24 hours, the soil is watered with the preparation of active compound. The amount of water per unit area is advantageously kept constant. The concentration of active compound in the preparation is immaterial, only the application rate of active compound per unit area matters.
(§8) After three weeks, the degree of damage to the plants is scored visually in % damage in comparison to the development of the untreated control.
as §6

weeds [9] = assay: Pre-emergence test; format: in vivo
Procedure: as §1, §2, §3, §7, §8, §6

Abutilon [10] = assay: Pre-emergence test; format: in vivo; conditions: Abutilon, 504 h, greenhouse, after three weeks, read-out: degree of damage to the plants (% damage), Abutilon; for pest or weed control at 1000 g/ha: 1000 g of ai./ha
Procedure: as §1, §2, §3, §7, §8, §6

Sinapis [11] = assay: Pre-emergence test; format: in vivo; conditions: greenhouse, 1000 g of ai./ha, after three weeks
Procedure: as §1, §2, §3, §7, §8, §6

Maize = assay: Pre-emergence test; format: in vivo; conditions: greenhouse, after three weeks
Procedure: as §1, §2, §3, §7, §8, §6

Veronica [12] = assay: Post-emergence test; format: in vivo; conditions: greenhouse, 250 g of ai./ha, after three weeks
Procedure: as §1, §2, §3, §4, §5, §6

Wheat [13] = assay: Post-emergence test; format: in vivo; conditions: greenhouse, 250 g of ai./ha, after three weeks
Procedure: as §1, §2, §3, §4, §5, §6

Echinochloa = assay: Post-emergence test; format: in vivo; conditions: greenhouse, 250 g of ai./ha, after three weeks
Procedure: as §1, §2, §3, §4, §5, §6

Datura = assay: Post-emergence test; format: in vivo; conditions: greenhouse, 250 g of ai./ha, after three weeks
Procedure: as §1, §2, §3, §4, §5, §6

Ipomoea = assay: Post-emergence test; format: in vivo; conditions: greenhouse, 250 g of ai./ha, after three weeks
Procedure: as §1, §2, §3, §4, §5, §6

Matricaria = assay: Pre-emergence test; format: in vivo; conditions: greenhouse, 500 g of ai./ha, after three weeks
Procedure: as §1, §2, §3, §7, §8, §6

Galium [14] = assay: Pre-emergence test; format: in vivo; conditions: greenhouse, after three weeks
Procedure: as §1, §2, §3, §7, §8, §6

Alopecurus [15] = assay: Pre-emergence test; format: in vivo; conditions: greenhouse, after three weeks
Procedure: as §1, §2, §3, §7, §8, §6

Cotton = assay: Pre-emergence test; format: in vivo; conditions: greenhouse, 500 g of ai./ha, after three weeks
Procedure: as §1, §2, §3, §7, §8, §6

Digitaria = assay: Pre-emergence test; format: in vivo; conditions: greenhouse, 500 g of ai./ha, after three weeks
Procedure: as §1, §2, §3, §7, §8, §6

Avena fatua = assay: Post-emergence test; format: in vivo; conditions: greenhouse, 1000 g of ai./ha, after three weeks
Procedure: as §1, §2, §3, §4, §5, §6

Sinapis [16] = assay: Post-emergence test; format: in vivo; conditions: greenhouse, 1000 g of ai./ha, after three weeks
Procedure: as §1, §2, §3, §4, §5, §6

Cyperus = assay: Post-emergence test; format: in vivo; conditions: greenhouse, 1000 g of ai./ha, after three weeks
Procedure: as §1, §2, §3, §4, §5, §6

Xanthium [17] = assay: Pre-emergence test; format: in vivo; conditions: greenhouse, 1000 g of ai./ha, after three weeks
Procedure: as §1, §2, §3, §7, §8, §6

Setaria [18] = assay: Pre-emergence test; format: in vivo; conditions: greenhouse, 1000 g of ai./ha, after three weeks
Procedure: as §1, §2, §3, §7, §8, §6

Viola = assay: Pre-emergence test; format: in vivo; conditions: greenhouse, 500 g of ai./ha, after three weeks
Procedure: as §1, §2, §3, §7, §8, §6

Veronica [19] = assay: Pre-emergence test; format: in vivo; conditions: greenhouse, 500 g of ai./ha, after three weeks
Procedure: as §1, §2, §3, §7, §8, §6

Chenopodium = assay: Pre-emergence test; format: in vivo; conditions: greenhouse, 500 g of ai./ha, after three weeks
Procedure: as §1, §2, §3, §7, §8, §6

Wheat [20] = assay: Pre-emergence test; format: in vivo; conditions: greenhouse, 500 g of ai./ha, after three weeks
Procedure: as §1, §2, §3, §7, §8, §6

Solanum = assay: Pre-emergence test; format: in vivo; conditions: greenhouse, 500 g of ai./ha, after three weeks
Procedure: as §1, §2, §3, §7, §8, §6

| Compound | pest or weed control at 1000 g/ha (Amaranthus [1]) | degree of damage to the plants (% damage), Xanthium (Xanthium [2]) | activity against weeds (weeds [3]) | degree of damage to the plants (% damage), Abutilon (Abutilon [4]; 1000 g of ai./ha) | degree of damage to the plants (% damage), Galium (Galium [5]) | degree of damage to the plants (% damage), Alopecurus (Alopecurus [6]) | pest or weed control at 1000 g/ha (Setaria [7]) | pest or weed control at 1000 g/ha (Amaranthus [8]) | activity against weeds (weeds [9]) | pest or weed control at 1000 g/ha (Abutilon [10]) | degree of damage to the plants (% damage), Sinapis (Sinapis [11]) | degree of damage to the plants (% damage), Cotton (Cotton) | degree of damage to the plants (% damage), Avena fatua (Avena fatua) | degree of damage to the plants (% damage), Sinapis (Sinapis [16]) | degree of damage to the plants (% damage), Cyperus (Cyperus) | degree of damage to the plants (% damage), Alopecurus (Alopecurus [15]; 1000 g of ai./ha) | degree of damage to the plants (% damage), Setaria (Setaria [18]) | also measured |
| --- | --- | --- | --- | --- | --- | --- | --- | --- | --- | --- | --- | --- | --- | --- | --- | --- | --- | --- |
| CCC(COc1ccccc1)Nc1nc(N)nc(C(F)(F)F)n1 (stereo not shown) [Example 2] | 100% | 100% | strong activity | 100% | 100% | 70% | 100% | 100% | strong activity | 80% | 100% |  |  |  |  |  |  | degree of damage to the plants (% damage), Maize (Maize; 1000 g of ai./ha): 20%; melting point: 100 °C |
| CCC(CCc1ccccc1)Nc1nc(N)nc(C(C)(C)F)n1 (racemic) [Example 1, (R/S)-2-amino-4-(1-fluoro-1-methyl-ethyl)-6-(1-ethyl-3-phenyl-propylamino)-1,3,5-triazine] |  |  | strong activity |  |  |  |  |  | strong activity |  |  | 0% |  |  |  |  |  | degree of damage to the plants (% damage), Veronica (Veronica [12]): 100%; degree of damage to the plants (% damage), Wheat (Wheat [13]): 0%; degree of damage to the plants (% damage), Echinochloa (Echinochloa): 80%; degree of damage to the plants (% damage), Abutilon (Abutilon [4]; 250 g of ai./ha): 100%; degree of damage to the plants (% damage), Datura (Datura): 100%; degree of damage to the plants (% damage), Ipomoea (Ipomoea): 100%; pest or weed control at 500 g/ha (Abutilon [10]; 500 g of ai./ha): 100%; degree of damage to the plants (% damage), Maize (Maize; 500 g of ai./ha): 0%; degree of damage to the plants (% damage), Matricaria (Matricaria): 100%; degree of damage to the plants (% damage), Galium (Galium [14]; 500 g of ai./ha): 100%; degree of damage to the plants (% damage), Alopecurus (Alopecurus [15]; 500 g of ai./ha): 100%; degree of damage to the plants (% damage), Digitaria (Digitaria): 100% |
| CCC(CCc1ccsc1)Nc1nc(N)nc(C(C)(C)F)n1 (stereo not shown) [Example 33] | 100% |  | strong activity | 100% |  | 80% | 100% | 100% | strong activity | 90% | 100% |  | 100% | 100% | 90% | 100% | 100% | degree of damage to the plants (% damage), Xanthium (Xanthium [17]): 90% |
| CCC(CCc1ccccn1)Nc1nc(N)nc(C(C)(C)F)n1 (stereo not shown) [Example 22] | 95% | 70% | strong activity | 70% | 80% |  | 80% | 95% | strong activity | 100% |  | 0% |  |  |  | 90% | 70% | degree of damage to the plants (% damage), Viola (Viola): 100%; degree of damage to the plants (% damage), Veronica (Veronica [19]): 100%; degree of damage to the plants (% damage), Chenopodium (Chenopodium): 100%; degree of damage to the plants (% damage), Wheat (Wheat [20]): 0%; degree of damage to the plants (% damage), Solanum (Solanum): 100%; degree of damage to the plants (% damage), Galium (Galium [14]; 1000 g of ai./ha): 100% |
| CCC(CCc1cccs1)Nc1nc(N)nc(C(C)F)n1 (stereo not shown) [Example 23] | 100% | 100% | strong activity | 100% |  | 90% | 100% |  |  |  |  |  | 100% | 100% | 100% |  |  |  |
